Test results taken from EPA's ToxValDB 9.5.

Assays:
Mus musculus [1] = settings: chronic, duration: 6 months, inhalation, F, hepatic
Rattus norvegicus [2] = settings: M/F
Rattus norvegicus [3] = settings: oral
Rattus norvegicus [4] = settings: oral; remark: listed apart in the source
Mus musculus [5] = settings: reproduction developmental; oral; drinking water; F; Nod/Shilt; generation: F1; F1: Endocrine: Blood: Glucose (GLU) + F1: Endocrine: Multiple Organs: Diabetes + F1: Endocrine: Pancreas: Insulitis
Rattus norvegicus [6] = settings: oral, gavage, Crl:CD(SD)
[7] = reproduction developmental, oral, reduced fertility in the F1/F2b generation + Reduced relative kidney weights in F0, F1, and F2b adults
[8] = subchronic, oral, renal and hepatotoxicity
[9] = chronic, duration: 2 years, oral, diet, reduced body weight
[10] = developmental, inhalation, reduced pup weight in the f1 and f2 generations
[11] = short-term, inhalation, degeneration of olfactory epithelium
[12] = subchronic, oral, myocardial degeneration, hepatotoxicity and nephrotoxicity
[13] = reproduction developmental, oral, drinking water, neurodevelopmental effects
[14] = chronic, duration: 2 years, inhalation, no effects
[15] = chronic, duration: 2 years, oral, diet, decreased body weight gain increased plantar ulcer (females)
[16] = developmental, duration: 46 days, gavage, F, Developmental: Decreased body weight in pups on PNDs 0 and 4 (13-19% in males and 12-16% in females)
[17] = subchronic, duration: 46 days, gavage, M/F, Body Weight: Decreased body weight (~10%) in males during exposure and recovery and in satellite females during dosing (~23% on day 40) and …
[18] = developmental, F, generation: F1, F1: Developmental: Whole Body: Pup Weight Relative to Litter (PND 0) + F1: Developmental: Whole Body: Pup Weight Relative to Litter (PND 4)
[19] = developmental, M/F, generation: F1, F1: Developmental: Whole Body: Live Birth Index + F1: Developmental: Whole Body: Live Pups Born + F1: Developmental: Whole Body: No. Live …
[20] = developmental, M, generation: F1, F1: Developmental: Whole Body: Pup Weight Relative to Litter (PND 0) + F1: Developmental: Whole Body: Pup Weight Relative to Litter (PND 4)
[21] = reproduction developmental, duration: 42 days, M, generation: P0, P0: Blood: Albumin/Globulin (A/G) Ratio + P0: Liver: Cholesterol (CHOL), Total, Blood + P0: Liver: Hepatocellular Hypertrophy + P0: Liver: …
[22] = reproduction developmental, duration: 46 days, F, generation: F1, F1: Whole Body: Pup Weight Relative to Litter (PND 0) + F1: Whole Body: Pup Weight Relative to Litter (PND 4)
[23] = reproduction developmental, duration: 46 days, F, generation: P0, P0: Liver: Cholesterol (CHOL), Total, Blood + P0: Liver: Phospholipid
[24] = reproduction developmental, duration: 46 days, M, generation: F1, F1: Whole Body: Pup Weight Relative to Litter (PND 0) + F1: Whole Body: Pup Weight Relative to Litter (PND 4)
[25] = reproduction developmental, F, generation: P0, P0: Developmental: Uterus: Implantation + P0: Developmental: Uterus: Implantation Index + P0: Hepatic: Blood: Albumin/Globulin (A/G) Ratio…
[26] = reproduction developmental, F, generation: P0, P0: General Toxicity: Whole Body: Clinical Observations + P0: General Toxicity: Whole Body: Maternal Body Weight Change + P0: Other Systems…
[27] = reproduction developmental, M, generation: P0, P0: General Toxicity: Whole Body: Body Weight Change + P0: General Toxicity: Whole Body: Clinical Observations + P0: Other Systems: Bone: …
[28] = reproduction developmental, M, generation: P0, P0: Hepatic: Blood: Albumin/Globulin (A/G) Ratio + P0: Hepatic: Liver: Alanine Aminotransferase (ALT) + P0: Hepatic: Liver: Albumin (A) + P0…

## NN [Hydrazine]
Mus musculus [1]; ICR
  LOAEL: 0.262 mg/m3

## COC(=O)C(C)Oc1ccc(Oc2ncc(C(F)(F)F)cc2Cl)cc1 (centres undefined) [Haloxyfop-methyl]
Rattus norvegicus [2]; [7]
  LEL: 0.05 mg/kg-day
  NOEL: 0.005 mg/kg-day

## C#CCO [Propargyl alcohol]
Rattus norvegicus [2]; [8]
  LOAEL: 15 mg/kg-day
  NOAEL: 5 mg/kg-day

## COc1nc(C)nc(NC(=O)NS(=O)(=O)c2ccccc2Cl)n1 [Chlorsulfuron]
Rattus norvegicus [2]; [9]
  LEL: 25 mg/kg-day
  NOEL: 5 mg/kg-day

## C1CCCCC1 [Cyclohexane]
Rattus norvegicus [2]; [10]
  LOAEL: 24100 mg/m3
  NOAEL: 6890 mg/m3

## CN(C)N [1,1-Dimethylhydrazine]
Mus musculus [1]; C57BL/6
  LOAEL: 0.123 mg/m3

## CC=O [Acetaldehyde]
Rattus norvegicus [3]; short-term, duration: 28 days, drinking water, M/F, Wistar, Food Consumption: decrease + Water Consumption: decrease + Blood Chemistry: BUN increase, T-Bil decrease, ALT decrease, ALP decrease + …
  NOAEL: 125 mg/kg-day
Rattus norvegicus [2]; [11]
  LOAEL: 728 mg/m3
  NOAEL: 273 mg/m3

## OCC(Cl)CCl (centres undefined) [2,3-Dichloro-1-propanol]
Rattus norvegicus [2]; [12]
  LOAEL: 35 mg/kg-day
  NOAEL: 10 mg/kg-day

## [O-][Cl+][O-] [Chlorite]
Rattus norvegicus [2]; [13]
  LOAEL: 6 mg/kg-day
  NOAEL: 3 mg/kg-day
Rattus norvegicus [4]; developmental, duration: 16 weeks, drinking water, M/F, Sprague-Dawley, developmental
  NOAEL: 2.9 mg/kg-day

## CC(F)(F)Cl [1-Chloro-1,1-difluoroethane]
Rattus norvegicus [2]; [14]
  NOAEL: 82600 mg/m3

## CCOP(=O)(OCC)SCCSCC.CCOP(=S)(OCC)OCCSCC [Demeton]
Rattus norvegicus [2]; chronic, duration: 2 years, oral, diet, cholinesterase inhibition, optic nerve degeneration
  LEL: 0.04 mg/kg-day

## CC(C)C(Nc1ccc(C(F)(F)F)cc1Cl)C(=O)OC(C#N)c1cccc(Oc2ccccc2)c1 (centres undefined) [Fluvalinate]
Rattus norvegicus [2]; [15]
  LEL: 2.5 mg/kg-day
  NOEL: 1 mg/kg-day

## CC(F)F [1,1-Difluoroethane]
Rattus norvegicus [2]; [14]
  NOAEL: 67500 mg/m3

## O=C(O)C(F)(F)C(F)(F)C(F)(F)C(F)(F)C(F)(F)C(F)(F)C(F)(F)C(F)(F)C(F)(F)C(F)(F)F [Perfluoroundecanoic acid]
Rattus norvegicus [3]; subchronic, gavage, M, Sprague-Dawley, Body Weight Changes: Body weight gain decrease + Hematology: Fibrinogen decrease + Blood Chemistry: BUN increase, ALP increase, TP decrease…
  NOEL: 0.1 mg/kg-day
Rattus norvegicus [4]; [16]
  LOAEL: 1 mg/kg-day
  NOAEL: 0.3 mg/kg-day
Rattus norvegicus [4]; [17]
  LOAEL: 1 mg/kg-day
  NOAEL: 0.3 mg/kg-day
Rattus norvegicus [4]; subchronic, duration: 46 days, gavage, M/F, Hepatic: Increased absolute and relative liver weight and centrilobular hypertrophy at 1.0 mg/kg/day
  NOAEL: 1 mg/kg-day
Mus musculus [5]
  LOAEL: 0.042 mg/kg-day
  NOAEL: 0.004 mg/kg-day
Rattus norvegicus [6]; [18]
  LOAEL: 0.3 mg/kg-day
  NOAEL: 0.1 mg/kg-day
Rattus norvegicus [6]; [19]
  LOAEL: 0.3 mg/kg-day
  NOAEL: 0.1 mg/kg-day
Rattus norvegicus [6]; [20]
  LOAEL: 0.3 mg/kg-day
  NOAEL: 0.1 mg/kg-day
Rattus norvegicus [6]; reproduction developmental, duration: 42 days, M, generation: P0, P0: Adrenal: Adrenal Gland Histopathology + P0: Adrenal: Adrenal Gland Weight, Absolute + P0: Adrenal: Adrenal Gland Weight, Relative + P0: …
  NEL: 1 mg/kg-day
Rattus norvegicus [6]; reproduction developmental, duration: 42 days, M, generation: P0, P0: Adrenal: Adrenal Gland Weight, Absolute, Recovery + P0: Blood: Activated Partial Thromboplastin Time (APTT) + P0: Blood: Calcium (CA), …
  LEL: 1 mg/kg-day
Rattus norvegicus [6]; reproduction developmental, duration: 42 days, M, generation: P0, P0: Blood: Activated Partial Thromboplastin Time (APTT) + P0: Blood: Calcium (CA), Blood + P0: Blood: Fibrinogen + P0: Blood: Mean …
  NEL: 0.3 mg/kg-day
Rattus norvegicus [6]; [21]
  LEL: 0.3 mg/kg-day
  NEL: 0.1 mg/kg-day
Rattus norvegicus [6]; reproduction developmental, duration: 42 days, M, generation: P0, P0: Blood: Platelets (PLT)
  LEL: 0.1 mg/kg-day
Rattus norvegicus [6]; [22]
  LEL: 1 mg/kg-day
  NEL: 0.3 mg/kg-day
Rattus norvegicus [6]; reproduction developmental, duration: 46 days, F, generation: P0, P0: Adrenal: Adrenal Gland Histopathology + P0: Adrenal: Adrenal Gland Weight, Absolute + P0: Adrenal: Adrenal Gland Weight, Relative + P0: …
  NEL: 1 mg/kg-day
Rattus norvegicus [6]; reproduction developmental, duration: 46 days, F, generation: P0, P0: Adrenal: Adrenal Gland Weight, Absolute, Recovery + P0: Blood: Fibrinogen + P0: Blood: Mean Corpuscular Hemoglobin (MCH) + P0: Blood: …
  LEL: 1 mg/kg-day
Rattus norvegicus [6]; reproduction developmental, duration: 46 days, F, generation: P0, P0: Blood: Fibrinogen + P0: Blood: Mean Corpuscular Hemoglobin (MCH) + P0: Blood: Mean Corpuscular Volume (MCV) + P0: Kidney: Blood Urea …
  NEL: 0.3 mg/kg-day
Rattus norvegicus [6]; reproduction developmental, duration: 46 days, F, generation: P0, P0: Blood: Total Protein (TP), Blood + P0: Thymus: Thymus Histopathology
  LEL: 0.1 mg/kg-day
Rattus norvegicus [6]; [23]
  LEL: 0.3 mg/kg-day
  NEL: 0.1 mg/kg-day
Rattus norvegicus [6]; reproduction developmental, duration: 46 days, M/F, generation: F1, F1: Whole Body: Live Birth Index + F1: Whole Body: Live pups (PND 4) + F1: Whole Body: Live Pups Born + F1: Whole Body: Male Pups per Pups …
  NEL: 1 mg/kg-day
Rattus norvegicus [6]; [24]
  LEL: 1 mg/kg-day
  NEL: 0.3 mg/kg-day
Rattus norvegicus [6]; reproduction developmental, F, generation: P0, P0: Cardiovascular: Heart: Heart Histopathology + P0: Cardiovascular: Heart: Heart Weight, Absolute + P0: Cardiovascular: Heart: Heart …
  LOAEL: 0.3 mg/kg-day
Rattus norvegicus [6]; [25]
  LOAEL: 0.3 mg/kg-day
  NOAEL: 0.1 mg/kg-day
Rattus norvegicus [6]; [26]
  LOAEL: 1 mg/kg-day
  NOAEL: 0.3 mg/kg-day
Rattus norvegicus [6]; reproduction developmental, M, generation: P0, P0: Cardiovascular: Heart: Heart Histopathology + P0: Cardiovascular: Heart: Heart Weight, Absolute + P0: Cardiovascular: Heart: Heart …
  LOAEL: 0.3 mg/kg-day
Rattus norvegicus [6]; [27]
  LOAEL: 1 mg/kg-day
  NOAEL: 0.3 mg/kg-day
Rattus norvegicus [6]; [28]
  LOAEL: 0.3 mg/kg-day
  NOAEL: 0.1 mg/kg-day
